pEC50, pIC50: −log10 of the molar value.
Legend:
Assay type in all cases: cell-based
Ole1 = target: T1, Ole1 (Saccharomyces cerevisiae, UniProt P21147); test: Growth inhibition of yeast expressing Ole1 as sole desaturase
T1 construct: expressed in transfected cells; host or cells: S. cerevisiae ole1Δ strain (W303 pdr1Δ pdr3Δ background), plasmid pRS316 with TDH3 promoter and CYC1 terminator
T1 sequence (P21147 1-510): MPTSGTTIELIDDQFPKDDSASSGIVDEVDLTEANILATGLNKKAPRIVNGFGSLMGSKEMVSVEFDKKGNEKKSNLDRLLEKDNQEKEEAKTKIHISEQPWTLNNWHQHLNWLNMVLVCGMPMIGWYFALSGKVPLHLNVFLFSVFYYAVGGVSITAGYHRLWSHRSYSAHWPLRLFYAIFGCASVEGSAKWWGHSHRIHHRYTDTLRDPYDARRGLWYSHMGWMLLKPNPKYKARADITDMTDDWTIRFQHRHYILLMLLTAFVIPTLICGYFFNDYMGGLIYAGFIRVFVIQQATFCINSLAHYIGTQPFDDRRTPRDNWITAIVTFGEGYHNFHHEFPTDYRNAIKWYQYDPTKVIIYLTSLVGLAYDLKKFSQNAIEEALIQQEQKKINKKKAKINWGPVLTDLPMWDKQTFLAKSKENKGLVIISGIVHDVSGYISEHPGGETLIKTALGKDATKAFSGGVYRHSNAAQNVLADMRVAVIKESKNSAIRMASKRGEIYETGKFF
Method: (§1) Strain ole1Δ (yeast ole1 deletion mutant) was constructed by deleting OLE1 with NAT-MX6 in BY4741, amplifying the deletion cassette from the genomic DNA of the resulting strain with primers flanking the ORF by 1000 bp upstream and downstream, transforming the resulting deletion cassette into W303 pdr1Δ pdr3Δ, and plating transformants on YPD media containing G418 (200 μg/mL) and nourseothricin (100 μg/mL) with 0.01% TWEEN®-20 and 0.5 mM oleic and palmitoleic acids.
(§2) The coding sequence of yeast OLE1 was also cloned into this plasmid). These clones were then transformed into the ole1Δ strain and plated on CSM-Ura media (CSM lacking uracil) with 2% glucose (w/v) and independent colonies were isolated and amplified.
(§3) All compound profiling experiments were performed using the same basic protocol. Different genetic backgrounds (e.g., gene deletions) or conditions (e.g., addition of oleic and palmitoleic acid) were replaced as indicated below.
(§4) Yeast were cultured using standard techniques in complete synthetic media (CSM) and yeast nitrogen base supplemented with 2% (w/v) carbon source (glucose, raffinose, or galactose) to regulate the expression of the toxic disease protein. An initial starter culture was inoculated in 3 mL CSM-Glucose media and incubated overnight in a 30° C. shaker incubator (225 rpm). Saturated morning cultures were then diluted 1:20 in fresh CSM-Raffinose media and grown for 6 h to an OD600 (optical density) of ˜0.4-0.8 at 30° C. with shaking.
(§5) Compound administration was performed in two separate steps. First, 15 μL of CSM-Galactose (induces expression of toxic protein) was dispensed into clear 384 well assay plates using a MULTIDROP™ Combi reagent dispenser. […] The cultures described above were then diluted to a 2× concentration (0.03 and 0.08 for alpha-synuclein and ApoE, final OD600 of 0.015 and 0.04) in CSM-Galactose. For wild-type and Ole1/SCD1/SCD5 plasmid-containing strains, the 2× cell density was 0.02. […] For 96-well assays (FIGS. 1A and 1B), compound dilutions in DMSO were generated in 96 well plates and 1 μL was manually pipetted into 96 well clear bottom assay plates.
(§6) For experiments using a plasmid-borne copy of Ole1, SCD1, or SCD5 (FIGS. 3B, 6, and 7), media lacking uracil (SX-Ura, where X is glucose, raffinose, or galactose), was used for all steps of the compound profiling protocol to ensure its maintenance throughout the assay.
(§7) After yeast delivery, assay plates were incubated under humidified conditions at 30° C. for 24 to 40 h. ApoE4 rescue experiments were stopped at 24 h, aSyn experiments at 40 h, Ole1 at 24 h, and SCD1/SCD5 at 40 h. The growth of yeast was monitored by reading the OD600 of each well using a microplate reader (Perkin Elmer EnVision™).

SCD1 = target: T2, SCD1 (Homo sapiens, UniProt O00767); test: Growth inhibition of humanized yeast expressing SCD1 as sole desaturase; details: for SCD1 % Max Inhibition / pIC50: humanized yeast expressing SCD1
T2 construct: host or cells: S. cerevisiae ole1Δ strain, plasmid pRS316 with TDH3 promoter and CYC1 terminator
T2 sequence (O00767 1-359): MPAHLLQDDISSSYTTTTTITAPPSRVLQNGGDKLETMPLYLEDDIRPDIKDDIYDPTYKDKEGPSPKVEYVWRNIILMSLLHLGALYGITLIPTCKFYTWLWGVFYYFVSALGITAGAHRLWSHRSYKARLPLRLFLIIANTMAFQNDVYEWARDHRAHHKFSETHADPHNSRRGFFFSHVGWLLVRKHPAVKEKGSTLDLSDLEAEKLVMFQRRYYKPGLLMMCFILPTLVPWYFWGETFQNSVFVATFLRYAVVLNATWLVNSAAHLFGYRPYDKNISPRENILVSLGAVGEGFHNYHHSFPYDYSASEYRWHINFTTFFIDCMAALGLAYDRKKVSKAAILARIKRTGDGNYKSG
How it was run: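 ole1Δ yeast (W303 pdr1Δ pdr3Δ background) carried plasmid-borne human SCD1, human SCD5 or yeast Ole1 as the sole desaturase and were grown in uracil-lacking galactose medium in 384-well plates. Starting 2× density was OD600 0.02, with incubation at 30 °C. Growth was read as OD600 at 24 h for Ole1 and at 40 h for SCD1 and SCD5.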

SCD5 = target: T3, SCD5 (Homo sapiens, UniProt Q86SK9); test: Growth inhibition of humanized yeast expressing SCD5 as sole desaturase; details: for SCD5 % Max Inhibition / pIC50: humanized yeast expressing SCD5
T3 construct: host or cells: S. cerevisiae ole1Δ strain, plasmid pRS316 with TDH3 promoter and CYC1 terminator
T3 sequence (Q86SK9 1-330): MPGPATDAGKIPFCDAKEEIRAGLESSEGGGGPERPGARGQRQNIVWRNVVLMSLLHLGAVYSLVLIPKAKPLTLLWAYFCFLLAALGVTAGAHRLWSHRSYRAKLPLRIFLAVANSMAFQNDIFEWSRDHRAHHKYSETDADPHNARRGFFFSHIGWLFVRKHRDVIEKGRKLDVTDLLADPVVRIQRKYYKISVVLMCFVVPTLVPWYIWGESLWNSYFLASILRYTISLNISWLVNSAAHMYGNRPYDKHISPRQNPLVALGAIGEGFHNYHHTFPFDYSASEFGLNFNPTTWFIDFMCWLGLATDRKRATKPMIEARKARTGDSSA
Method: as §1, §2, §3, §4, §5, §6, §7

[1] = system: yeast strains expressing the human protein α-synuclein; test: Yeast rescue assay, α-synuclein toxicity (OD600 growth); details: 40 h; for α-Syn Emax: percent above DMSO
Method: (§8) In a standard yeast assay, a single-use aliquot of cells was thawed on ice and diluted into CSM/glucose (5 mL). Cultures were grown for 8 hours at 30° C. This pre-growth enables the yeast to exit the thaw and begin to grow without expressing aSyn or ApoE4. After 8 hours, cell density (OD600) was determined and cultures diluted to an OD600 of 0.01 in CSM/raffinose for an overnight culture phase at 30° C. During this period, the active glucose repression of the GAL1 promoter was relieved; however, expression of the α-Syn/ApoE4 genes were not yet induced. After ˜16 hours of growth, cultures attain an OD600 of 0.4-0.8 and were ready to apply to assay plates containing compound.
(§9) Compound profiling assays were executed in clear-bottom 384 well plates. First, compound plates were thawed at room temperature for 45′, centrifuged at 1,000×g for 1 minute, and the foil removed. Clear 384 well assay plates were then filled with 15 μL of CSM/galactose. Both compound and media-containing plates were arranged on the Janus workstation and a compound pin tool (384×100 nL slotted pins) used to deliver 100 nL of compounds to each well according to the well map of the compound plate. Based on the previous serial dilution, the final concentration of compound ranged from […] to 12.5 nM. The pin tool was washed iteratively with both 50% DMSO and 100% ethanol between each assay plate. After delivering compound to each assay plate, the overnight CSM/raffinose aSyn or ApoE4 cultures were added at a 2× cell density (0.04 for aSyn and 0.08 for ApoE4) in CSM/galactose to achieve a final assay OD600 of 0.02 and 0.04 for aSyn and ApoE, respectively. The cultures (15 μL per well) were then dispensed to the compound-containing 384 well assay plates using an automated plate filler. Plates were incubated in a humidified 30° C. incubator for 40 or 24 hours for aSyn and ApoE4, respectively. The OD600 of each assay plate was then read with a microplate reader (e.g., Perkin Elmer Envision).
The efficacy and potency of compounds were calculated according to the following. Raw data (OD600 values) were first background corrected to account for OD600 contributed by the plate and media itself. The efficacy (percent above DMSO, herein referred to as “Emax”) was calculated according to the equation: (Experimental well−DMSO control well)/(DMSO control well)*100. […] Normalized dose-response data was fit with a logistic regression curve using Spotfire (TIBCO), or similar curve-fitting software package. EC50 values were then reported along with EMax to provide both efficacy and potency measures for each analog and enable further compound design.

[2] = system: yeast strains expressing the human protein ApoE4; test: Yeast rescue assay, ApoE4 toxicity (OD600 growth); details: 24 h
Method: as §8
as §9, with “The cultures (15 μL per well) were then dispensed to the compound-containing 384 well assay plates using an automated plate filler. Plates were incubated in a humidified 30° C. incubator for 40 or 24 hours for aSyn and ApoE4, respectively.” left out
The efficacy and potency of compounds were calculated according to the following. […] The efficacy (percent above DMSO, herein referred to as “Emax”) was calculated according to the equation: (Experimental well−DMSO control well)/(DMSO control well)*100. […]

[3] = yeast expressing Ole1 as sole desaturase

Row | SMILES | OLE1 % Max Inhibition (Ole1; [3]) | SCD1 % Max Inhibition (SCD1) | SCD5 % Max Inhibition (SCD5) | other results
1 | COc1ccc(-c2noc(C3CCN(C(=O)[C@H]4CC(=O)N(c5ccc(C)c(C)c5)C4)CC3)n2)cc1OC (single isomer, unassigned) [Compound 67] | 85.79% | 54.45% | 4.32% | –
2 | COc1cccc(-c2noc(C3CCN(C(=O)[C@@H]4CC(=O)N(c5ccc(C)c(C)c5)C4)CC3)n2)c1 (single isomer, unassigned) [Compound 69] | 105.31% | 60.59% | 8.06% | –
3 | Cc1nnc(-c2ccc(N3CCC(Oc4cc(F)ccc4Cl)CC3)nn2)o1 [CAY10566, reference compound] | – | – | – | Sensitivity of yeast expressing OLE1 to known SCD1/SCD5 inhibitors (Ole1; FIG. 6): resistant; half-maximal inhibitory concentration (IC50), SCD1 humanized strain (SCD1; FIG. 6): low nanomolar; half-maximal inhibitory concentration (IC50), SCD5 humanized strain (SCD5; FIG. 6): low nanomolar
4 | CCOc1ccc(-c2noc(C3CCN(C(=O)N4CCCCC4)CC3)n2)cc1OC [Compound 53] | – | – | – | α-Syn Emax [1]: 81%; ApoE4 Emax ([2]; percent above DMSO): 296%
5 | Cc1ccc(-c2noc(C3CCN(C(=O)C4CC(=O)N(c5ccc(C)c(C)c5)C4)CC3)n2)cc1 (centres unmarked) [Compound 61] | 71.50% | 2.37% | 13.18% | pEC50 ([1]; read-out: α-Syn EC50): 4.71; α-Syn Emax [1]: 229%; pEC50 ([2]; Homo sapiens): 4.71; Emax ([2]; Homo sapiens, percent above DMSO): 465%; pIC50 (Ole1; [3]): 4.39
6 | COc1ccc(-c2noc(C3CCN(C(=O)[C@H]4CC(=O)N(c5ccccc5)C4)CC3)n2)cc1OC [Compound 65] | 4.02% | 83.43% | 73.43% | pIC50 (SCD1): < 4.35; pIC50 (SCD5): < 4.35
7 | COc1ccc(-c2noc(C3CCN(C(=O)[C@@H]4CC(=O)N(c5ccccc5)C4)CC3)n2)cc1OC [Compound 66] | 99.71% | 94.04% | 19.53% | pIC50 (SCD1): < 4.35; pIC50 (SCD5): < 4.35
